From US8227510B2, “Combine use of pterostilbene and quercetin for the production of cancer treatment medicaments” (Universitat de Valencia, priority 2004, dated 2012)

Assay: in vivo
Set-up: species or system mice
Conditions: mouse
Description: The mice (C57BL/6J, male, 6-8 weeks) were from Charles River Spain (Barcelona). The procedures and animal care were based on institutional standards and complied with national and international laws and policies (Directive 86/609, OJ L 358. 1 of the Council of the European Community, of 12 Dec. 1987) and the “Guide for the Care and Use of Laboratory Animals” of the National Institutes of Health (NIH, USA) (NIH Publication No. 85-23, 1985). All the animals were fed according to concentrated laboratory diets (Letica, Barcelona, Spain) allowing them free access to food and submitting them to a cycle of 12 hours of light/12 hours of darkness with ambient temperature of 22° C. The experiments were begun at 10.00 a.m. to minimize the effects of diurnal variations.
For the pharmacokinetic studies and for the daily treatment, the mice were administered i.v. (via the jugular vein, where a permanent catheter had previously been fixed by surgical methods; i.v. administration was carried out slowly for 1 minute), and orally (via stomach tube), 20 mg/kg of t-PTER (dissolved in ethanol 0.5 ml/kg of animal weight) or QUER (dissolved in dimethylsulfoxide:saline, 1:0.5 0.15 ml/kg of weight). In general, the compositions based on a combination of PTER and QUER can contain, as excipients, those stated previously or any others that are pharmaceutically acceptable. The presentation of said compositions can be, non-limitatively, in the form of solids such as tablets, capsules, pellets, pills, etc. and liquid presentations such as drops, syrups, injectables, etc. Moreover, the active principles (PTER and QUER) of the composition can be in their uncombined forms or in the form of pharmaceutically acceptable salts, including esters. The t-PTER was synthesized in our laboratory following standardized reactions of Wittig and Heck (www.orgsyn.org), whereas the QUER was obtained from Sigma Chemical Co. (San Luis, Mo., USA). The ^3H-t-PTER (2.2 Ci/mmol), labeled in the ortho and para positions of the benzene rings, was prepared in our laboratory according to a method similar to that used for the deuteration of phenols (18). ^14C-QUER (50 mCi/mmol), labeled in position 4 of the carbon ring, was obtained from the NCI Radiochemical Carcinogen Repository of Chemsyn Laboratories (Kansas City, Mo., USA). The radioactivity was measured using a Varisette 2700 TR analyzer from Packard. Blood was collected by means of the catheter in 1-ml syringes that contained heparin sodium (0.05 ml of a 5% solution in […]). The plasma and the erythrocytes were separated as described previously (19).
LC-MS/MS was carried out using a Quattro Micro triple quadrupole mass spectrometer (Micromass, Manchester, UK) equipped with an LC-10Advp pump, an SLC-10Avp control system and an SIL-10Advp autoinjector from Shimadzu. The samples were analyzed by reverse-phase high-performance liquid chromatography using a Prodigy ODS column (100×2 mm) from Phenomenex (Torrance, Calif., USA), with a particle size of 3 μm. In all cases, 40 μl was injected into the column. Column temperature was maintained at 25° C. The following gradient system was used, pumped through the column at 0.2 ml/minute (min/% A/% B/% C) (A, methanol; B, 10% acetonitrile and 90% ammonium formate 10 mM pH 3.75; C, ammonium formate 10 mM pH 3.75): 0/5/5/90, 10/5/5/90, 20/5/90/5, 30/100/0/0, 40/5/5/90. The negative ion tandem mass spectra obtained by electrospray were recorded with the electrospray capillary fixed at […] and at a temperature of the source block of 120° C. Nitrogen was used as nebulizer gas and drying gas, with flows of 300 and 30 l/h, respectively. Argon at 1.5×10^−3 mbar was used as the collision gas for collision-induced dissociation. A test was carried out based on LC-MS/MS with tracking of multiple reactions using the transitions m/z 255-240 for PTER and […] for QUER, which in both cases represent favorable fragmentation routes for these deprotonated molecules. […]

Structure (SMILES)	PTER measured in plasma or blood in the trans form (male, C57BL/6J)	half-life (male, C57BL/6J, iv, 20 mg/kg)	time in which plasma concentration decreases to ~1 μM (male, C57BL/6J, iv, 20 mg/kg)	levels in whole blood compared with plasma	half-life
COc1cc(/C=C/c2ccc(O)cc2)cc(OC)c1 [PTER, pterostilbene]	At least 99%	~77.9 min	480 min	not significantly different	
O=c1c(O)c(-c2ccc(O)c(O)c2)oc2cc(O)cc(O)c12 [QUER, quercetin]		~20.1 min	120 min	not significantly different	
Oc1ccc(C=Cc2cc(O)cc(O)c2)cc1 [RESV, resveratrol, reference compound]					~10.2 min
